Assay results from patent publication US6544541B1, “Devices and compounds for treating arterial restenosis” (Cardiovascular Solutions, Inc., priority 1999, dated 2003).

How the values were obtained:
H4IIE cells = test: lactate dehydrogenase (LDH) release toxicity assay; assay type: cell-based; conditions: 96 hours; FIG. 5
Experimental: To address the issue of MIBG toxicity, lactate dehydrogenase (LDH) release was measured after incubation with MIBG or MIBA. Quiescent H4IIE cells were prepared in 96-well dishes and treated with various concentrations of either MIBG or MIBA for 96 hours. To quantify the release of LDH from the cells, which only occurs if the cells are damaged or killed by the treatment, 100 μl of culture medium was transferred to a fresh dish. To this was added 100 μl of dye/catalyst mixture (Boehringer Mannheim cytotoxicity detection kitTM), and the samples were subsequently incubated for 30 minutes at 37° C. Absorbance of the solution was monitored at 490 nm. The colour intensity indicates the relative LDH content in the test samples. […] As a consequence, it is speculated that changes in LDH release may be coupled to non-toxic and reversible alterations in mitochondrial metabolism or membrane integrity as a result of MIBG treatment.

H4IIE hepatoma cells [1] = test: DNA synthesis (3H-thymidine incorporation) in H4IIE cells; assay type: cell-based; conditions: H4IIE cells
Experimental: Incorporation of uridine or thymidine was used to define the change in rate of […] synthesis, respectively, in response to a mitogen such as insulin. Specifically, quiescent H4IIE cells were prepared by placing the cultures (in 24-well dishes) into serum-free a-minimal essential medium for 3 days. It is of note that the normal growth media for H4IIE cells is α-MEM containing 10% fetal bovine serum (FBS). After reaching quiescence, the cells were stimulated with 1 μM insulin and incubated for either 6 hours or 24 hours in the presence of 1 μCi/ml ^3H-uridine or ^3H-thymidine, respectively. Cells were subsequently lysed with detergent and the nucleic acids precipitated with 5% trichloroacetic acid. The precipitated material was collected on glass fibre filters and the radioactive content measured by scintillation counting. […] Furthermore, while complete inhibition of DNA synthesis by MIBG is obtained at approximately 20 μM, higher concentrations decrease basal DNA synthesis below control levels.

H4IIE hepatoma cells [2] = test: flow cytometry, bromodeoxyuridine incorporation in proliferating cells; assay type: cell-based; conditions: 25 μM MIBG, 48 hours; FIG. 4
Experimental: Additional verification that MIBG blocked cell proliferation was obtained using flow cytometry analysis. Proliferating H4IIE cells (<40% confluent) were incubated for 48 hours in the presence or absence (untreated control or containing MIBA) of 25 μM MIBG. The cells were pulse labeled with bromodeoxyuridine (BrdU) 2 hours before harvest to label replicating DNA. Cells were released by trypsinization, collected by centrifugation and permeabilized with Triton X-100 (1%). Replicated DNA was labeled with an anti-BrdU antibody conjugated to FITC (fluorescein isothiocyanate), while total DNA was labeled with propidium iodide. The FITC and propidium iodide labels were detected at 514 nm and 600 nm, respectively, with a Coulter flow cytometer™ (excitation wavelength 488 nm), and number of cells containing these fluors were quantified. The data were plotted as cells with propidium iodide versus cells with BrdU. […] To summarize, the results described above indicate that MIBG is a potent inhibitor of cell proliferation. Furthermore, the cellular process affected by MIBG is active throughout the cell cycle. This conclusion is based on the fact that there is no accumulation of cells at a specific phase of the cell cycle. In addition, it is of note that there is no apparent decrease in cell number or an increase in smaller cells, both characteristics of cell death.

[3] = system: porcine coronary artery smooth muscle cells
[4] = system: Friend erythroleukemia cells; test: Friend cell differentiation; assay type: cell-based
Excerpt: It is of note however that MIBG acts at a point in the differentiation pathway that is distinct from 3-aminobenzamide.

cell growth = conditions: cited from earlier work
[5] = system: smooth muscle cells derived from human arterial conduits; test: DNA synthesis and cytotoxicity in human smooth muscle cells; conditions: human cells; FIG. 26B
[6] = system: porcine coronary arteries; test: coronary artery organ culture after balloon angioplasty (neointimal index); conditions: organ culture, relative to MIBG; FIG. 24
Excerpt: Although smooth muscle cell cultures can be used to determine the ability of a compound to inhibit proliferation, these cells are not good indicators of a compound's ability to prevent restenosis. This statement stems from the fact that several processes, including cell migration, proliferation and synthesis of ECM degrading enzymes, must be coordinately activated in order for restenosis to occur. A novel organ culture system has therefore been developed in order to test the effectiveness of MIBG and other compounds at preventing restenosis (Wilson et al, 1999, Cardiac Res 42: 761-772). In brief, hearts are transported from the abattoir to the laboratory on ice. The left descending coronary artery is exposed and a balloon catheter is inserted past the first bifurcation. The balloon is inflated, and after 1 minute is deflated and withdrawn. The damaged region (approximately 20 mm in length) is excised, cut into 4 pieces of 5 mm and each piece is placed into an individual well of a culture dish. These segments can be maintained in media containing 20% serum for up to 21 days. Upon harvest of the tissue, typically after 14 days, the vessel segments are placed into resin for histological analysis. Sections are prepared from vessel segments after removal of the first 1.5 mm. […] This file is imported into SigmaScan™, and staining in the areas of the intimal and medial layers quantified. […]

porcine femoral artery = test: balloon angioplasty of the porcine femoral artery in vivo; design: species or system pigs; conditions: in vivo femoral angioplasty, relative to MIBG; FIG. 25
Excerpt: To test the effectiveness of MIBG under in vivo conditions, this compound was applied to the femoral artery after balloon angioplasty. This model provided a means of testing both MIBG and the method of application. Specifically, male castrated farm pigs (25-30 kg) were anaesthetized and maintained on isoflurane throughout the procedure. With the pig in a supine position, the left femoral artery was exposed from the bifurcation of the femoral and superficial femoral arteries to the point of insertion of the femoral artery into the groin. A mixture of nitroglycerin and papaverine was applied to the vessel and the area was covered with a saline-soaked sponge to keep the tissues moist. The right femoral artery was also exposed, treated and covered with a sponge. The left femoral was then clamped at both groin insertion (proximal) and bifurcation (distal) points, and an arteriotomy made at the bifurcation. The balloon (6.0×20 mm) was inserted through the arteriotomy in a retrograde manner (i.e. toward the groin) to a position 20 mm from the arteriotomy and the proximal clamp removed. The balloon was inflated for 1 minute, deflated and carefully removed, and the arteriotomy was closed with 6.0 ProleneTM suture. MIBG in combination with a biocompatible glue, in this example, Tisseel®, was applied to the surface of the vessel extending from the arteriotomy to the proximal region past the site of balloon inflation. The fibrin glue ensured that MIBG slowly diffused into the vessel. Furthermore, the fibrin glue helps to retain MIBG at the site for several days. The right femoral was handled as described above. […] The extent of restenosis was subsequently monitored by morphometry. […] Digital images were captured with a DAGE-MTI CCD camera and analyzed with SigmaScan Software. The neointimal and medial areas are quantified and used to calculate the neointimal index: neointimal area/medial area. […] Even though the vehicle cannot be detected after 14 days, we conclude that it remains for the minimum period necessary.

[7] = human studies; cited from earlier work
smooth muscle cells = test: Boyden chamber smooth muscle cell migration in response to Angiotensin II; assay type: cell-based; conditions: 20 μM; 10 μM Angiotensin II in lower compartment; FIG. 17
Experimental: Specifically, smooth muscle cells were seeded into the upper chamber of a Boyden chamber, which consists of two compartments that are separated by a permeable membrane. […] Specifically, migration to the lower compartment was determined by counting cells on the underside of the membrane. Data are presented as means ± standard error for six independent determinations.

In the case of NCc1cccc(I)c1 [MIBA, meta-iodobenzylamine], the “concentration at which increased LDH release is detectable” value (H4IIE cells) is reported as no less than 200 µM, the “inhibition of DNA synthesis (thymidine incorporation)” value (H4IIE hepatoma cells [1]) is reported as “does not inhibit DNA synthesis” and the “bromodeoxyuridine incorporation (DNA synthesis)” value (H4IIE hepatoma cells [2]) is reported as “identical to those observed in the control cells”.
For benzylguanidine [BG], the “inhibition of thymidine incorporation” value [3] was “did not inhibit thymidine incorporation” and the “inhibition of DNA synthesis (thymidine incorporation)” value (H4IIE hepatoma cells [1]) was “did not inhibit thymidine incorporation”.
For NC(=O)c1cccc(N)c1 [3-aminobenzamide], the “effect on Friend cell differentiation” value [4] is given as “inhibits the commitment phase” and the “concentrations at which cell growth is inhibited” value (cell growth) is given as no less than 1 mM.
In the case of N=C(N)NCCCCN [agmatine], the “inhibition of DNA synthesis in response to serum treatment” value [3] is reported as “does not inhibit DNA synthesis”.
In the case of CC(C=NNC(=N)N)=NNC(=N)N [methylGAG, methylglyoxal bis-(guanylhydrazone)], the “toxicity relative to MIBG” value [5] is reported as “less toxicity”, the “effectiveness in preventing neointimal formation” value [6] is reported as “as effective as MIBG” and the “effectiveness in preventing neointimal formation” value (porcine femoral artery) is reported as “as effective as MIBG”. The “inhibition of thymidine incorporation, potency relative to MIBG” value [3] was “slightly more potent inhibitor than MIBG”, the “toxicity relative to MIBG” value [3] was “less toxicity” and the “effectiveness in preventing cell growth” value ([3]; smooth muscle cells, relative to MIBG) was “as effective as MIBG”. For the same compound, the “effectiveness in preventing cell growth” value (H4IIE hepatoma cells [1]; relative to MIBG) was “as effective as MIBG”, the “threshold of tolerance relative to MIBG” value [7] was “higher threshold of tolerance” and the “smooth muscle cell migration” value (smooth muscle cells) was “inhibited smooth muscle cell migration”.
